Results on two molecules are retold here after patent US20230270754A1, “COMBINATION THERAPY FOR INHALATION ADMINISTRATION” (Chemo Research, S.L., priority 2020, published 2023).

Holding throughout (format): physicochemical
Series [1] is described as follows: Active ingredient content after filtration (assay by Reverse Phase HPLC), Example 1. The note with it: triple combination BDP/GB/FF; for Formulation 1 Assay (%) active ingredient content compared to the theoretical amount: Formulation 1: 70% Ethanol; for Formulation 2 Assay (%) active ingredient content compared to the theoretical amount: Formulation 2: 96% Ethanol. On the procedure: Both formulations were filtrated, and individual assay of all active ingredients were tested by Reverse Phase HPLC.
Three independent Reverse Phase HPLC analytical methods were used for the determination of each active ingredient in all the analyses.

A short description of series [2]: Delivered dose by dose unit sampling apparatus (DUSA), Example 2. From the text:
Active pharmaceutical ingredients (APIs) deposited in the sampling apparatus were quantitatively recovered with a DUSA shaker (Copley Scientific Ltd) and methanol. APIs were, then, quantified by HPLC with the same methods described in Example 1.
Results are expressed as the average of 5 measurements.

Series [3] is described as follows: APSD by NGI, Example 2 Trimbow pMDI vs soft mist inhaler. As to the method:
The in vitro aerodynamic assessment was carried using a next generation impactor, NGI (Copley Scientific Ltd), equipped with a mouthpiece adapter for the insertion of the inhaler, an induction port and an internal filter holder (IFH) to capture the smaller particles. The product was tested as per procedure detailed in the European pharmacopoeia chapter 2.9.18 (apparatus E) and US Pharmacopeia chapter <601> (apparatus 6) for Soft Mist Inhalers.
The NGI was cooled to 5° C. for at least 75 min. The cooling chamber was then opened and, after 30 minutes, the NGI was connected to a HCP5 vacuum pump (Copley Scientific Ltd). […]
After the required actuations, the particles deposited on the different surfaces of the impactor were extracted using a suitable diluent (methanol) and with the help of a Gentle Rocker (Copley Scientific Ltd).
(§1) Data analysis. The NGI results were plotted against the stage cut-off diameter as the mass recovered from the induction port to the filter. Fine particle fraction (FPF %), mass median aerodynamic diameter (MMAD), fine particle dose (FPD) were determined from the analysis of the NGI data.
(§2) Results are expressed as the mean value of two NGIs analysis.

Series [4] in a line: APSD by NGI, Example 3 Foster pMDI vs soft mist inhaler. As to the method: The in vitro aerodynamic assessment was carried using a next generation impactor, NGI (Copley Scientific Ltd), equipped with a mouthpiece adapter for the insertion of the inhaler, an induction port and an internal filter holder (IFH) to capture the smaller particles. The product was tested as per procedure detailed in the European and US Pharmacopeia for Soft Mist Inhalers and pMDIs.
The NGI was cooled to 5° C. for at least 75 min. The cooling chamber was then opened and, after 30 minutes, the NGI was connected to a HCP5 vacuum pump (Copley Scientific Ltd). For each experiment, ten doses were discharged into the NGI at 30 L/min for 5 seconds each.
After the required actuations, the particles deposited on the different surfaces of the impactor were extracted using a suitable diluent (methanol) and with the help of a Gentle Rocker (Copley Scientific Ltd). Active ingredients were then quantified by HPLC, with the same methods used for the Example 1.
Data analysis. The NGI was plotted against the stage cut-off diameter as the mass recovered from the induction port to the filter. Fine particle fraction (FPF %) and mass median aerodynamic diameter (MMAD) were determined from the analysis of the NGI data.
as §2

Series [5] can be described thus: APSD by NGI, Example 4 budesonide/formoterol 70% vs 96% ethanol, soft mist inhaler. As to the method:
Typical System Suitability Criteria applies as per USP <621> requirements.
For the APSD evaluation Formulation 1 and 2 were filled into cartridges compatible with a soft mist inhaler (Respimat®). The in vitro aerodynamic particle size distribution of both formulations was evaluated using an impactor, the next generation impactor, NGI (Copley Scientific Ltd) equipped with a mouthpiece adapter for the insertion of the inhaler, an induction port and an internal filter holder (IFH) to capture the smaller particles. The product was tested as per procedure detailed in the European pharmacopoeia chapter 2.9.18 (apparatus E) and US Pharmacopeia chapter <601> (apparatus 6) for Soft Mist Inhalers.
(§3) The NGI was cooled to 5° C. for at least 75 min. The cooling chamber was then opened and, after 30 minutes, the NGI was connected to a HCP5 vacuum pump (Copley Scientific Ltd). For each experiment, ten doses were discharged per NGI actuated at 28.3 L/min for 5 seconds each.
After the required actuations, the particles deposited on the different surfaces of the impactor were extracted using a suitable diluent (75/25 v/v MeOH/water) and with the help of a Gentle Rocker (Copley Scientific Ltd). Active ingredients were then quantified by HPLC as described above.
as §1, §2

Series [6] is described as follows: APSD by NGI, Example 5 Symbicort pMDI vs soft mist inhaler. On the procedure: The in vitro aerodynamic particle size distribution of both formulations was evaluated using an impactor, the next generation impactor, NGI (Copley Scientific Ltd) equipped with a mouthpiece adapter for the insertion of the inhaler, an induction port and an internal filter holder (IFH) to capture the smaller particles. The product was tested as per procedure detailed in the European and US Pharmacopoeia for Soft Mist Inhalers and pMDIs.
as §3
After the required actuations, the particles deposited on the different surfaces of the impactor were extracted using a suitable diluent (75/25 v/v MeOH/water) and with the help of a Gentle Rocker (Copley Scientific Ltd). Active ingredients were then quantified by HPLC, with the same methods described in example 4.
Data analysis. The NGI was plotted against the stage cut-off diameter as the mass recovered from the induction port to the filter. Fine particle fraction (FPF %), and mass median aerodynamic diameter (MMAD) were determined from the analysis of the NGI data.
as §2

The mark [7] stands for this setting: Soft Mist Inhaler (Respimat) 1 actuation, triple combination in 96% ethanol.
The mark [8] stands for this setting: Soft Mist Inhaler (1 actuation), triple combination in 96% ethanol.
[9] abbreviates: Soft Mist Inhaler (1 actuation), double combination BDP/FF in 96% ethanol.
[10] abbreviates: Trimbow pMDI (2 actuations), table title: Foster pMDI (2 actuation).
[11] abbreviates: Soft Mist Inhaler (1 actuation), budesonide/formoterol in 96% ethanol.

For the molecule `COc1ccc(C[C@@H](C)NC[C@H](O)c2ccc(O)c(NC=O)c2)cc1.O.O.O=C(O)/C=C/C(=O)O` (racemic) [Formoterol Fumarate], in series [1], the “Formulation 1 Assay (%) active ingredient content compared to the theoretical amount” value is given as 93.8%. The “Formulation 2 Assay (%) active ingredient content compared to the theoretical amount” value in series [1] amounted to 100.3%. In addition, the results for the “DUSA (μg) delivered dose” value in series [2] (setting [7]) and in series [2] (Trimbow pMDI 1 actuation) were 6.1 µg and 5.7 µg, respectively. Further, the FPD in series [3] (setting [8]) amounted to 5.3 µg; in series [3] (Trimbow pMDI (2 actuations)), 5.2 µg; in series [5] (Formulation 1 (70% EtOH)) it was 3.3 µg. Also, the FPF came out at 87.8% in series [3] (setting [8]), 44.6% in series [3] (Trimbow pMDI (2 actuations)), 68.4% in series [5] (Formulation 1 (70% EtOH)) and 89.7% in series [5] (Formulation 2 (96% EtOH)). Moreover, the “IP (induction port deposition)” value was 8.3% in series [3] (setting [8]) and 53.4% in series [3] (Trimbow pMDI (2 actuations)). For the same molecule, the “FPF (%)” value is 90.4% in series [4] (setting [9]), 45.8% in series [4] (setting [10]), 89.7% in series [6] (setting [11]) and 58.7% in series [6] (Symbicort pMDI (1 actuation)). The “MMAD (μm)” value in series [4] (setting [9]) was determined as 1.2 μm; in series [4] (setting [10]), 1.2 μm; in series [6] (setting [11]) it was 1.1 μm; in series [6] (Symbicort pMDI (1 actuation)) it was 3.3 μm. The molecule further registered an MMAD in series [5] (Formulation 1 (70% EtOH)) of 2.7 μm.
On to `CCC(=O)OCC(=O)[C@@]1(OC(=O)CC)[C@@H](C)C[C@H]2[C@@H]3CCC4=CC(=O)C=C[C@]4(C)[C@@]3(Cl)[C@@H](O)C[C@@]21C` [Beclometasone Dipropionate, 9-chloro-11β,17,21-trihydroxy-16β-methylpregna-1,4-diene-3, 20-dione 17,21-dipropionate], for which, in series [1], the “Formulation 1 Assay (%) active ingredient content compared to the theoretical amount” value is on record as 40.1% and the “Formulation 2 Assay (%) active ingredient content compared to the theoretical amount” value is 99.7%. In addition, the “DUSA (μg) delivered dose” value in series [2] (setting [7]) was determined as 97.1 µg. Further, in series [2] (Trimbow pMDI 1 actuation), the “DUSA (μg) delivered dose” value was 98.4 µg. In series [3] (setting [8]), the FPD amounted to 91.7 µg, the FPF stood at 87.9%, the “IP (induction port deposition)” value worked out at 8.3% and the MMAD came out at 1.2 μm. In series [3] (Trimbow pMDI (2 actuations)), the FPD was 86.0 µg, the FPF is recorded as 42.9%, the “IP (induction port deposition)” value came to 52.9% and the MMAD amounted to 1.2 μm. Moreover, in series [4] (setting [9]), the “FPF (%)” value is on record as 91.3% and the “MMAD (μm)” value came to 1.1 μm. Moreover, in series [4] (setting [10]), the “FPF (%)” value is 49.4% and the “MMAD (μm)” value was found to be 1.2 μm.
